Results: ChEMBL document CHEMBL4261503, “Scaffold hopping via ANCHOR.QUERY: β-lactams as potent p53-MDM2 antagonists†” (Medchemcomm, 2017)

Experiments:
[1] = molecular target: E3 ubiquitin-protein ligase Mdm2 (Homo sapiens, UniProt Q00987)
Protein Mdm4 = molecular target: T1, Protein Mdm4 (Homo sapiens, UniProt O15151)
T1 sequence (O15151 whole entry): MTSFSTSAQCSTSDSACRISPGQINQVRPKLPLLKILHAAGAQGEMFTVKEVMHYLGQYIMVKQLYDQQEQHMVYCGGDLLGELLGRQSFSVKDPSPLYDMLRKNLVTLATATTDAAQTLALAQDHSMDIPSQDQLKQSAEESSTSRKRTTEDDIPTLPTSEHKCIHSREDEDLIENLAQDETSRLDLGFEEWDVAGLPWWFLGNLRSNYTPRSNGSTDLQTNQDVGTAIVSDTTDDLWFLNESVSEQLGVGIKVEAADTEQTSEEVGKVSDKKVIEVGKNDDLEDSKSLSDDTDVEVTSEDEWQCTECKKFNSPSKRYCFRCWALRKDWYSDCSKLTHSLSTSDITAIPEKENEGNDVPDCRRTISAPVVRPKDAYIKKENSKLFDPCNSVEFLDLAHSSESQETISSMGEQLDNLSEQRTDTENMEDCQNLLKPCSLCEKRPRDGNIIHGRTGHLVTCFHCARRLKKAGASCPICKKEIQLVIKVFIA

Chain of E3 ubiquitin-protein ligase Mdm2 (Q00987 whole entry): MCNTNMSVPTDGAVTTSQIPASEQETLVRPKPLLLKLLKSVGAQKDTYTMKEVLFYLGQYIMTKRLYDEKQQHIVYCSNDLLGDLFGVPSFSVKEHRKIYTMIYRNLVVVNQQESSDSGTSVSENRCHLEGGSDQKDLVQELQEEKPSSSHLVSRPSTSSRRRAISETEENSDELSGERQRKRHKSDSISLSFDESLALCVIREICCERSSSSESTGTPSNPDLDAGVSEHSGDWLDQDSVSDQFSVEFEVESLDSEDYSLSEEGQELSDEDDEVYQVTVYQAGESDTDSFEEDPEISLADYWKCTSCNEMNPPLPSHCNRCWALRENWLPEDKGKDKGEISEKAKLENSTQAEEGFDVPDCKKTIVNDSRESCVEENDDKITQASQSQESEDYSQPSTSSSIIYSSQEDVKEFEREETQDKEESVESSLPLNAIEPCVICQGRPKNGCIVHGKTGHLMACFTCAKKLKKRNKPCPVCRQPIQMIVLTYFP

SMILES | Ki [1] | Ki (Protein Mdm4)
CC(C)(C)NC(=O)C(c1ccc(Cl)cc1)N1C(=O)CC1c1ccc(OCc2ccccc2)cc1 (mixture of isomers) | Not Active | Not Active
O=C(NC12CC3CC(CC(C3)C1)C2)C(c1ccc(Cl)cc1)N1C(=O)CC1c1ccc(OCc2ccccc2)cc1 (single isomer, unassigned; diastereomer A) | Not Active | Not Active
